# Reference: US20070010486A1 (priority 2005, published 2007)
# Where a name gives a salt, the structure may show the parent alone.
# Settings: use of CAPTISOL
structure (smiles),measurement,value
OC(COc1cccc2ncccc12)CN1CCN([C@@H]2c3ccccc3[C@@H]3[C@H](c4ccccc42)C3(F)F)CC1 (stereo partly shown) [zosuquidar trihydrochloride],increase in water solubility,> 5 fold
